# “Also recorded” adds a separate entry of the source.
# Tests used:
# [1] = system: α-MHC and β-MHC expression in cardiac ventricles; assay: Quantitative RT-PCR of ventricular α-MHC and β-MHC in cultured whole embryos; parameters: species or system mouse
# Protocol: (§1) Whole embryo culture Embryos ([…]) with intact yolk sacs were isolated and incubated in 1 ml culture medium containing 97% rat serum (Harlan Biosciences, Cincinnati, Ohio), 2 mg glucose, 100 U penicillin G and 100 μg streptomycin that was rotated slowly at […] and gassed periodically (every 8 hours) with 20% oxygen, 5% carbon dioxide, 75% nitrogen from E8.75 to E9.5, and 70% oxygen, 5% carbon dioxide and 25% nitrogen from E9.5 to E10.5. BMP10 (10 nM, RD Systems, Minneapolis, Minn.), BSA (125 ng/ml), TSA (100-500 nM, Sigma-Aldrich, St. Louis, Mo.), PJ-34 (20 uM, Alexis Corporation, San Diego)), BrdU (30_g/mL, Simga-Aldrich) or DMSO was added directly to the culture medium or during the last six hours for BrdU. Embryos were harvested 36-48 hours later for analysis.
# Quantitative RT-PCR analysis. Quantitative RT-PCR analyses were performed as described previously to examine gene expressions in the cardiac ventricles of E10.5/E11.5 embryonic hearts and adult hearts. The following primer sequences were used: Murine MHO, 5′ primer […], 3′ primer […]. Murine β-MHC, 5″ primer […], 3′ primer […]. Murine HPRT, 5′ primer GCTGGTGAAAAGGACCTCT, 3′ primer […]. Murine Brg1, 5″ primer […], 3′ primer […]. Human H3F3A, 5′ primer […], 3′ primer […]. Human Brg1, 5′ primer […], 3′ primer […]. Human α-MHC and β-MHC were by Taqman probes (Applied Biosciences, Foster City, Calif.. RT-PCR reactions were performed using SYBR green master mix (BioRad, Hercules, Calif.) or Taqman reagents (Applied Biosciences), and the primer sets were tested to be quantitative. Threshold cycles and melting curve measurements were performed with software.
# α-MHC promoter = assay: Luciferase reporter assay of α-MHC promoter activity in SW13 cells; format: cell-based, human
# Protocol: (§2) Cloning and Luciferase Reporter Assay Full length as well as serially truncated versions of intergenic α-MHC and β-MHC promoters were cloned into pREP4-Luc reporter plasmid, as detailed in the supplementary method. The constructs were transfected into SW13 cells with lipofectamine 2000 (Invitrogen, Calif.) along with pREP7-RL as a transfection efficiency control and Brg1 expression vector with the appropriate empty vector control. Luciferase activity was measured and normalized to that of Renilla luciferase construct using the Dual-Luciferase Reporter System (Promega, Wis.).
# (§3) Cloning and Luciferase Reporter Assay Specific truncations for the reporter constructs are as follows: for α-MHC promoter, full length promoter spans from 4243 by upstream and 192 by downstream of the transcription start site (−4243, +192), serially truncated versions span (−2537, +192), (−1802, +192), and (−462, +192). Likewise, β-MHC promoters span (−3561, +222), (−1770, +222), and (−835, +222).
# β-MHC promoter = assay: Luciferase reporter assay of β-MHC promoter activity in SW13 cells; format: cell-based, human
# Protocol: as §2, §3
# embryos = assay: Gross morphology of cultured whole embryos; parameters: species or system mouse; settings: whole embryos cultured from E9 to E10, compared to littermates treated with DMSO
# Protocol: as §1
# [2] = system: myocardial proliferation in cultured embryos; assay: Myocardial BrdU incorporation in whole embryo culture; parameters: species or system mouse
# Protocol: Quantitative analysis of myocardial development H&E-stained 7 μm paraffin sections were used for the morphometric analysis of the compact and trabecular myocardium. The following parameters were measured: thickness of compact 4 myocardium, number of trabeculi directly connected to compact myocardium, and trabecular area normalized to ventricular size. BrdU-stained sections were used to count the number of BrdU-positive cells per area of myocardium or per number of cells in the endocardium or endocardial cushions. All quantification and scale measurement were performed using NIS-Elements software (Nikon).
# as §1
# Proliferation and apoptosis analysis. Pregnant mice were injected with BrdU (Sigma, 100 μg/ml, intraperitoneal injection) for 6 hours prior to embryo isolation at E10.5 or E11.5. Incorporated BrdU was stained in the tissue-section of the heart according to manufacturer's protocol (Zymed Laboratories, South San Francisco, Calif.). Apoptosis of embryos were analyzed by TUNEL staining using a kit (Roche, Applied Science, Indianapolis, Ind.).
# [3] = whole embryos cultured from E9 to E10, vs DMSO
molecule,measurement,setting,value
CN(C)CC(=O)Nc1ccc2[nH]c(=O)c3ccccc3c2c1 [PJ-34],MHC switch in cultured embryos,"[1]; embryos cultured from E9 to E10, PJ-34 20 uM",exhibited α- and β-MHC switches; also recorded: causes MHC switch from β-MHC to α-MHC
same,effect on Brg1-mediated α-MHC repression,"α-MHC promoter; SW13 cells, PARP1 inhibition",reduced
same,effect on Brg1-mediated β-MHC activation,"β-MHC promoter; SW13 cells, PARP1 inhibition",reduced
"CC(/C=C/C(=O)NO)=C\[C@@H](C)C(=O)c1ccc(N(C)C)cc1 [TSA, trichostatin A]",increase in α/β MHC ratio,[1]; [3],3.5 folds
same,α-MHC expression,[1]; [3],significantly up-regulated
same,β-MHC expression,[1]; [3],down-regulated
same,gross morphology of treated embryos,embryos,grossly normal
same,effect on BAF-mediated repression of α-MHC reporter,α-MHC promoter; SW13 cells transfected with Brg1 expression vector,reversed the BAF-mediated repression of α-MHC
same,effect on Brg1-induced β-MHC promoter activation,β-MHC promoter; SW13 cells transfected with Brg1-expressing plasmid,no significant impact
same,reduction of β-MHC promoter activity,"β-MHC promoter; SW13 cells, basal activity without Brg1",55%
same,myocardial proliferation (BrdU incorporation),"[2]; wildtype embryos cultured from E8.75 to E10.5, BrdU last six hours, vs DMSO",normal
"BMP10: BMP10 protein (10 nM, RD Systems) required for the proliferation of myocardial cells (protein, UniProt O95393 317-424, looked up) Bone morphogenetic protein 10: NAKGNYCKRTPLYIDFKEIGWDSWIIAPPGYEAYECRGVCNYPLAEHLTPTKHAIIQALVHLKNSQKASKACCVPTKLEPISILYLDKGVVTYKFKYEGMAVSECGCR","effect on premature MHC differentiation (α-MHC over-, β-MHC under-expression)","[1]; cultured Sm22αCre;Brg1F/F embryos, BMP10 vs BSA",failed to reverse the premature MHC differentiation
same,increase of BrdU incorporation,"[2]; Sm22αCre;Brg1F/F embryos cultured from E8.75 for 42 to 48 hours, BMP10 10 nM",2.6 folds
same,BrdU incorporation restored to (relative to control embryos),"[2]; Sm22αCre;Brg1F/F embryos cultured from E8.75 for 42 to 48 hours, BMP10 10 nM, untreated mutant 33+/−12%",85+/−10%
